Reference: patent US20050282863A1, “Novel-N substituted dihydrobenzothiepino, dihydrobenzoxepino and tetrahydro benzocyclohepta indoles as selective estrogen receptor modulators” (Council of Scientific & Industrial Research, priority 2004, published 2005)
Where two headings read alike, the source gives them in different places.

How the values were obtained:
[1] = tested on: immature ovariectomized rats; assay: Estrogen agonistic activity: increase in uterine weight in immature ovariectomized rats; format: in vivo, rat; settings: 3 days, percent of ovariectomized + vehicle group
Protocol: Twenty-one-day-old immature female rats are bilaterally ovariectomized under light ether anaesthesia and, after post-operative rest for 7 days, are randomized into different treatment groups. Each rat receives the compound of the invention once daily for 3 consecutive days on days 28-30 of age. A separate group of animals receiving only the vehicle for similar duration serves as control. A autopsy 24 h after the last treatment on day 31 of age, vaginal smear of each rat is taken and uterus is carefully exised, gently blotted, weighed and fixed for histology and histomorphometry using image analysis. Premature opening of vagina, cornification of vaginal epitelium, increase in uterine fresh weight, total uterine and endometrial area and uterine luminal epithelial cell height are taken as parameters for evaluation of estrogen agonistic activity in comparision to rats of vehicle control group.

MCF-7 cells = assay: Antiproliferative/cytotoxic activity in cultured MCF-7 cells (SRB assay); format: cell-based; settings: Homo sapiens, MCF7, 48 h, MCF-7, 48 h
Protocol: The procedure is based on the following methods: New calorimetric assay for anticancer drug screening, Skehan et al., J Natn Cancer Inst, 82,1107, 1990 and Feasibility of a high-flux anticancer drug screen using a diverse panel of cultured human tumor cell lines, J Natn Cancer Inst, 83,757, 1991.
A fully confluent flask of MCF-7 cells in trypsinized and 10^4 cells/well are plated in a 96 welled flat bottomed plate in 200 μl Minimum Essential Medium (MEM), pH 7.4 and allowed to attach for 24 h at 37° C. in a humidified CO2 incubator. Subsequently, the compound of invention dissolved in DMSO or ethanol is added at a specified concentration and further incubated for 48 h as before. The cells are then fixed in 50 μl cold 50% TCA and incubated for 1 h at 4° C. The supernatant is discarded and the plate is washed five times with deionized water and air-dried. 100 μl of 0.4% (w/v) Sulforhodamine B (SRB) in 1% acetic acid is added to each well and incubated at room temperature for 30 minutes. Unbound SRB is removed by five washes with chilled 1% acetic acid and the plate is air-dried. 200 μl of unbuffered 10 mM Tris base is added to solublize the bound stain for 5 minutes at room temperature and O.D. is read at 560 nm in a plate reader. The graph is plotted between O.D. and concentration and LC50 is calculated with respect to tamoxifen, which is used as a positive control.

estrogen receptors = target: T1, estrogen receptors (Rattus norvegicus, UniProt P06211); assay: Relative binding affinity (RBA) to estrogen receptors, 3H-estradiol competition assay; set-up: key: % of 17-beta-estradiol binding affinity (estradiol = 100); settings: relative to 17-beta-estradiol (=100, percentage value); rat uterine cytosol, 3H-E2, 18 hrs at 4° C.
T1 construct: Aliquot of uterine cytosol (200 μl; 2 uteri per ml) prepared in TEA buffer; from tissue; host or cells: uterine cytosol of immature estradiol-primed 20-21 day old rats
T1 sequence (P06211 1-600): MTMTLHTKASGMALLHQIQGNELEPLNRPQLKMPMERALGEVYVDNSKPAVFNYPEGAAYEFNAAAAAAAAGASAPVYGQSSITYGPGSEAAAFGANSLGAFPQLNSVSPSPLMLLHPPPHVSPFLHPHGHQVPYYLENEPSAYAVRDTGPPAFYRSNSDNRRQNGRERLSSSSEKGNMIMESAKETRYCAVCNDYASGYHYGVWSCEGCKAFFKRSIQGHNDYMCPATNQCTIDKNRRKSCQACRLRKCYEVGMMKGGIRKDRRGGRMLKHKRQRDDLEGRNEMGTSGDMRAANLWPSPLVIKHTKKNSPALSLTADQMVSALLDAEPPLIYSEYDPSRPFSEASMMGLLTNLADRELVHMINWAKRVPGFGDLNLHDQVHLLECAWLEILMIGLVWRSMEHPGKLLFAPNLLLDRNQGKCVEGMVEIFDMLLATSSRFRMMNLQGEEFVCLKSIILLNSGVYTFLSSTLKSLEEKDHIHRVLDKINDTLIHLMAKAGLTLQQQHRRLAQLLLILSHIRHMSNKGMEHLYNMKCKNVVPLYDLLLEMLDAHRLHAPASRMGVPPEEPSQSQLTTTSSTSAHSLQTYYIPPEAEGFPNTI
Protocol: The relative binding affinity (RBA) of the compounds for estrogen receptor is determined by competition assay, employing ^3H-estradiol (^3H-E2) as the radioligand. The test ligands and ^3H-E2 are incubated at 4° C. with cystol estrogen receptors obtained from uteri of immature estradoil-primed (1 μg/rat 24 h before autopsy) 20-21 days old rats. Aliquot of uterine cytosol (200 μl; 2 uteri per ml) prepared in TEA buffer (10 mM Tris, 1.5 mM EDTA, 0.02% sodium azide, pH 7.4) are incubated in duplicate with a fixed concentration of ^3H-E2 in the absence or presence of various concentrations of the competitor substance dissolved in 30 μl of the TEA buffer containing DMF as co-solvent (final concentration of DMF in the incubation mixture never exceeded 5%) for 18 hrs at 4° C. At the end of this period, dextran coated charcoal (5% Norit 0.5% dextran) suspension in 100 μl of TEA buffer is added to each tube, briefly vortexed and allowed to stand for 15 minutes at 4° C. The mixture is centrifuged at 800 g for 10 minutes and the supernatants counted for radioactivity in 10 ml of a dioxane-based scintillation fluid. RBA of the text compound is computed from a graph plotted between percent bound radioactivity verses log concentration of the test substance. […] This when multiplied with 100 gives the percentage value designated as RBA.

adult female rats = assay: Post-coital antifertility efficacy in adult female rats; format: in vivo, rat; settings: daily dose 10 mg/kg, oral, days 1-7 post-coitum
Text: Adult female rats are caged overnight with coeval males of proven fertility and their vaginal smears are checked on the following morning. The day of presence of spermatozoa in the vaginal smear is taken as day 1 of pregnancy. Mated rats are isolated and randomized into various treatment groups and treated orally with the compound of invention or the vehicle on days 1-7/1-5 post-coitum. Animals of all the groups are autopsied on day 10 post-coitum and number and status of corpora lutea and implantation sites in each rat are recorded. The compounds of the present invention are considered active if there is complete absence of implantations in the uterus of all rats, in comparison to presence of normal implantations in the uterus of rats of vehicle control group.

[2] = tested on: immature ovariectomized rats; assay: Estrogen antagonistic activity: inhibition in 17α-ethynylestradiol induced uterine weight gain in immature ovariectomized rats; format: in vivo, rat; settings: 3 days
Protocol: Twenty-one-day-old immature female rats are bilaterally ovariectomized under light ether anaesthesia and after post-operative rest for 7 days, are randomized into different treatment groups. Each rat receives the compounds of the invention and 0.02 mg/kg dose of 17-alfa-ethynylestradiol in 10% ethanol-distilled water once daily for 3 consecutive days on days 28-30 of age. A separate group of animals receiving only 17-alfa-ethynylestradiol (0.02 mg/kg) in 10% ethanol-distilled water for similar duration are used for comparison. At autopsy on day 31 of age, vaginal smear of each rat is taken and uterus is carefully excised, gently blotted, weighed and fixed for histology and histomorphometry using image analysis. Inhibition in 17-alfa-ethynylestradiol-induced premature opening of vagina, cornification of vaginal epithelium, increase in uterine fresh weight, total uterine and endometrial area and uterine luminal epithelial cell height are taken as parameters for evaluation of estrogen antagonistic activity.

C#C[C@]1(O)CC[C@H]2[C@@H]3CCc4cc(O)ccc4[C@H]3CC[C@@]21C [17α-Ethynylestradiol, reference compound]
Percent increase in uterine weight ([1]; daily dose 0.01 mg/kg): 419%

COc1ccc2c(c1)SCCc1c-2n(CCCCCN2CCCCC2)c2ccccc12 [Example number 22, 3-Methoxy-12-[5-(piperidine-1-yl)pentyl]-6,7-dihydro-12H-benzothiepino [5,4-b]indole]
CC50 (MCF-7 cells; read-out: LC50, Test-4): 19.5 µM
RBA (estrogen receptors): <0.001

c1ccc2c(c1)SCCc1c-2n(CCCCCCN2CCCC2)c2ccccc12 [Example number 19, 12-[6-(Pyrrolidine-1-yl)hexyl]-6,7-dihydro-12H-benzothiepino [5,4-b]indole]
RBA (estrogen receptors): 0.053

c1ccc2c(c1)SCCc1c-2n(Cc2ccc(OCCCCCN3CCCCC3)cc2)c2ccccc12 [Example number 60, 12-[4-(5-Piperidin-1-yl-pentyloxy)benzyl]-6,7-dihydro-12H-benzothiepino [5,4-b]indole]
% Efficacy (adult female rats): Inactive
CC50 (MCF-7 cells; read-out: LC50, Test-4): 18.4 µM

Oc1ccc2c(c1)SCCc1c-2n(CCCCCN2CCCC2)c2ccccc12 [Example number 25, 3-Hydroxy-12-[5-(pyrrolidine-1-yl)pentyl]-6,7-dihydro-12H-benzothiepino [5,4-b]indole]
CC50 (MCF-7 cells; read-out: LC50, Test-2): 15 µM
RBA (estrogen receptors): 0.83

Oc1ccc2c(c1)c1c(n2CCCCCN2CCCCC2)-c2ccccc2SCC1 [Example number 29, 9-Hydroxy-12-[5-(piperidine-1-yl)pentyl]-6,7-dihydro-12H-benzothiepino [5,4-b]indole]
% Efficacy (adult female rats): Inactive
RBA (estrogen receptors): <0.001

CCCCN(C)CCCCCn1c2c(c3ccccc31)CCSc1ccccc1-2.O=C1O[C@H]([C@@H](O)CO)C(O)=C1O [Example number 15, 12-[5-(N-butylmethylamino)pentyl]-6,7-dihydro-12H-benzothiepino [5,4-b]indole ascorbic acid salt]
Percent increase in uterine weight ([1]; daily dose 1 mg/kg): 11.00%
Percent increase in uterine weight ([1]; daily dose 3 mg/kg): 15.00%
Percent increase in uterine weight ([1]; daily dose 10 mg/kg): 11.50%
Percent inhibition in 17α-ethynylestradiol induced uterine weight gain ([2]; daily dose 1 mg/kg with 0.02 mg/kg 17-alfa-ethynylestradiol): 10.00%
Percent inhibition in 17α-ethynylestradiol induced uterine weight gain ([2]; daily dose 3 mg/kg with 0.02 mg/kg 17-alfa-ethynylestradiol): 23.00%
Percent inhibition in 17α-ethynylestradiol induced uterine weight gain ([2]; daily dose 10 mg/kg with 0.02 mg/kg 17-alfa-ethynylestradiol): 15.00%

COc1ccc2c(c1)SCCc1c-2n(CCCCCN2CCCC2)c2ccccc12 [Example number 23, 3-Methoxy-12-[5-(pyrrolidine-1-yl)pentyl]-6,7-dihydro-12H-benzothiepino [5,4-b]indole]
CC50 (MCF-7 cells; read-out: LC50, Test-4): 60 µM
RBA (estrogen receptors): <0.001

c1ccc2c(c1)SCCc1c-2n(Cc2ccc(OCCCCCN3CCCCC3)cc2)c2ccccc12 [Example number 43, 12-[4-(5-Piperidin-1-yl-pentyloxy)benzyl]-6,7-dihydro-12H-benzothiepino [5,4-b]indole]
% Efficacy (adult female rats): Inactive

CCCCN(C)CCCCCCn1c2c(c3ccccc31)CCSc1ccccc1-2 [Example number 20, 12-[6-(N-butylmethylamino)hexyl]-6,7-dihydro-12H-benzothiepino [5,4-b]indole]
RBA (estrogen receptors): 0.10

c1ccc2c(c1)SCCc1c-2n(CCCCN2CCCCC2)c2ccccc12 [Example number 9, 12-[4-(Piperidine-1-yl)butyl]-6,7-dihydro-12H-benzothiepino [5,4-b]indole]
CC50 (MCF-7 cells; read-out: LC50, Test-2): 37.4 µM

c1ccc2c(c1)SCCc1c-2n(CCCN2CCCCC2)c2ccccc12 [Example number 7, 12-[3-(Piperidine-1-yl)propyl]-6,7-dihydro-12H-benzothiepino [5,4-b]indole]
% Efficacy (adult female rats): Inactive
change in vivo at 3 mg/kg ([1]; Rattus norvegicus, 72 h, daily dose 3 mg/kg): 24.6%
change in vivo at 10 mg/kg ([1]; Rattus norvegicus, 72 h, daily dose 10 mg/kg): 109%
inhibition in vivo at 10 mg/kg/day ([2]; Rattus norvegicus, 72 h, daily dose 10 mg/kg with 0.02 mg/kg 17-alfa-ethynylestradiol, read-out: Percent inhibition in 17α-ethynylestradiol induced uterine weight gain): 15.4%
CC50 (MCF-7 cells; read-out: LC50, Test-1): 46 µM

COc1ccc2c(c1)SCCc1c-2n(CCCCCN2CCCC2)c2ccc(OC)cc12 [Example number 33, 3,9-Dimethoxy-12-[5-(pyrrolidine-1-yl)pentyl]-6,7-dihydro-12H-benzothiepino [5,4-b]indole]
CC50 (MCF-7 cells; read-out: LC50, Test-4): 18.2 µM
RBA (estrogen receptors): <0.001

CCCCN(C)CCCCCn1c2c(c3cc(OC)ccc31)CCSc1cc(OC)ccc1-2 [Example number 34, 3,9-Dimethoxy-12-[5-(N-butylmethylamino)pentyl]-6,7-dihydro-12H-benzothiepino [5,4-b]indole]
RBA (estrogen receptors): 0.032

CC/C(=C(\c1ccccc1)c1ccc(OCCN(C)C)cc1)c1ccccc1 [Tamoxifen, reference compound]
CC50 (MCF-7 cells; read-out: LC50, Test-1): 18.5 µM
CC50 (MCF-7 cells; read-out: LC50, Test-2): 5.5 µM
CC50 (MCF-7 cells; read-out: LC50, Test-3): 12.4 µM
CC50 (MCF-7 cells; read-out: LC50, Test-4): 9.8 to 10 µM

COc1ccc2c(c1)SCCc1c-2n(CCCCCN2CCCCC2)c2ccc(OC)cc12 [Example number 32, 3,9-Dimethoxy-12-[5-(piperidine-1-yl)pentyl]-6,7-dihydro-12H-benzothiepino [5,4-b]indole]
CC50 (MCF-7 cells; read-out: LC50, Test-4): 28 µM
RBA (estrogen receptors): <0.001
